{
  "source": "patent US20190046662A1",
  "about": "“Compositions and Methods for Treating Neuropathic Pain” (Rutgers, The State University of New Jersey, priority 2016, published 2019)",
  "type_in_all_cases": "in vivo, rat",
  "key": {"hTac1-hM4D": {"target": "T1, hTac1-hM4D (Homo sapiens, UniProt P08173, A203G/Y113C)", "T1 construct": "expressed in transfected cells; host or cells: rat trigeminal ganglion neurons in vivo, viral vector with Tac1 promoter", "T1 sequence (P08173 1-479 Y113C/A203G)": "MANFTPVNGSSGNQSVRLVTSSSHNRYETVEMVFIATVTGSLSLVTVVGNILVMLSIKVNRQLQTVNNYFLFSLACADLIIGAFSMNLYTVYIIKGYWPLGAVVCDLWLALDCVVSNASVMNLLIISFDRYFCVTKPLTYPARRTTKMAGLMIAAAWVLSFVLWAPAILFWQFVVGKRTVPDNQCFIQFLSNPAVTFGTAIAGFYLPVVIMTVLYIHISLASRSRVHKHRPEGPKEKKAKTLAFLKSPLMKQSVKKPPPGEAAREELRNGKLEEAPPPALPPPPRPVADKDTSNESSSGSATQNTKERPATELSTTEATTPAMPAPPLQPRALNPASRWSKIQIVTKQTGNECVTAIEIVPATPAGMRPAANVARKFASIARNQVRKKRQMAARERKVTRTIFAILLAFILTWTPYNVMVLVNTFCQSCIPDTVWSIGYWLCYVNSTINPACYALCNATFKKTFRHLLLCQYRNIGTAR", "experiment": "Face grooming after s.c. formalin into right upper lip, Tac1-DREADD (hTac1-hM4D)", "conditions": "females, n=7 per group, vs vehicle", "method": "The effects of Tac1-DREADD activation with CNO on face grooming activity observed after s.c. injection of formalin into the right upper lip were also studied (FIG. 9). The mean number of seconds that rats (females, n=7 per group) spent grooming (±SEM) is plotted for the 45 minutes post-formalin injection observation period. All animals had Tac1-DREADD (hTac1-hM4D) injected into the right trigeminal ganglion. CNO or vehicle was delivered i.p. 30 minutes prior to the s.c. injection of 1.5% formalin (50 μl) into the right upper lip (ipsilateral side), just lateral to the nose."}, "hSyn-hM4D": {"target": "T2, hSyn-hM4D (Homo sapiens, UniProt P08173, A203G/Y113C)", "T2 construct": "expressed in transfected cells; host or cells: rat trigeminal ganglion neurons in vivo, viral vector with synapsin promoter", "T2 sequence (P08173 1-479 Y113C/A203G)": "T1 sequence (P08173 1-479 Y113C/A203G)", "experiment": "Pain-like behavior after infraorbital nerve chronic constriction injury (IoN-CCI), synapsin-DREADD (hSyn-hM4D)", "conditions": "IoN-CCI males", "from_the_text": "For the infraorbital nerve chronic constriction injury (ION-CCI), ˜0.5 cm of the infraorbital nerve will be freed and two chromic gut ligatures will be loosely tied around it (2 mm apart) prior to closure of the incision (all performed under ketamine/xylazine anesthesia). As a control, other rats will undergo sham surgery where the infraorbital nerve is exposed but left untouched. This model results in persistent pain beginning at about 2 weeks postoperatively and lasting at least 3 weeks (Benoliel et al. (2001) Neurosci. Lett., 297:151-4; Benoliel et al. (2002) Pain 97:203-12), allowing for the assessment of the effect of vehicle vs CNO/DREADD-mediated inhibition of TG neurons on this behavior at multiple time points. Fos expression and cAMP levels may also be measured in the TG to correlate these molecular endpoints to behavioral effects of DREADD activation. The rats will also undergo repeated stimulation with a 2-g von Frey hair applied to the hairy skin of the vibrissae on the operated side to induce Fos (Vos et al. (1995) J. Comp. Neurol., 357:362-75). Activation of hM4Di receptors will reduce Fos in the TG following von Frey stimulation.\nThe effects of synapsin-DREADD activation with CNO on pain-like behavior following chronic constriction injury (CCI) of the infraorbital nerve (ION) were also studied (FIG. 6). The mean von Frey detection thresholds (±SEM) (left) and the mean response scores (±SEM) (right) to the pin-prick stimulation applied to the vibrissal pads were plotted. All animals (males, n=4 per group) were exposed to the infraorbital nerve chronic constriction injury (IoN-CCI) unilaterally. Following IoN-CCI, all animals had synapsin-DREADD (hSyn-hM4D) injected into the ipsilateral trigeminal ganglion. At post-operative day 26 (D26) CNO or vehicle was delivered intraperitoneally 30 minutes prior to behavioral testing."}, "[1]": {"target": "T3, hM4Di receptors expressed in TG (Homo sapiens, UniProt P08173, A203G/Y113C)", "T3 construct": "expressed in transfected cells; host or cells: rat trigeminal ganglion neurons in vivo, transduced with AAV5 (synapsin promoter)", "T3 sequence (P08173 1-479 Y113C/A203G)": "T1 sequence (P08173 1-479 Y113C/A203G)", "experiment": "Orofacial formalin test after AAV5-hSyn-hM4Di-mCherry injection into TG (Example 1)", "conditions": "rats with AAV5-hSyn-hM4Di-mCherry in TG, vs vehicle", "from_the_text": "The orofacial formalin model is well established for inducing behavioral and molecular changes indicating pain. The formalin model mimics the clinical situation of an acute insult that wanes rapidly. Models of trigeminal pain and their behavioral and molecular assessments have been described (Benoliel et al. (2001) Pain 91:111-21; Benoliel et al. (2001) Neurosci. Lett., 297:151-4; Benoliel et al. (2002) Pain 97:203-12; Benoliel et al. (2002) Pain 99:567-78). There is increased and intense directed facial grooming following injection of formalin into the rat vibrissal pad, and the duration of grooming is thought to represent the level of pain (Clavelou et al. (1995) Pain 62:295-301; Raboisson et al. (1995) J. Neurophysiol., 73:496-505; Sukriti et al. (2004) Methods Find Exp. Clin. Pharmacol., 26:253-6). At day 37 after virus injection (to allow for viral transfection and DREADD expression), acute pain was induced by subcutaneous injection of 50 μL of 1.5% formalin into the rat's vibrissal pad. Formalin activates Aδ and C nociceptors as well as trigeminal and spinal nociceptive neurons. Formalin-induced unilateral pain is biphasic, with an early short-lasting (3-5 minutes) phase, followed after a quiescent period by a second, prolonged (20-40 minutes) tonic phase. The orofacial formalin test is a valid and reliable way of producing and quantifying nociception in the trigeminal region of the rat (Raboisson et al. (2004) Neurosci. Biobehay. Rev., 28:219-26; Le Bars et al. (2001) Pharmacol. Rev., 53:597-652; Vos et al. (1998) Pain 76:173-8). The concentration of formalin used allows for the detection of both hypo- and hyperalgesic effects. The time that the animal spends rubbing the injected area with fore- or hind paws was recorded. Thirty minutes prior to injecting formalin the animals received CNO ([…], ip) or vehicle treatment."}, "[2]": {"conditions": "CNO ip 30 min prior to formalin"}},
  "data": [
    {"compound": "C[N+]1([O-])CCN(C2=Nc3cc(Cl)ccc3Nc3ccccc32)CC1", "note": "[CNO, clozapine N-oxide]", "values": [
      {"measurement": "total face grooming time, acute phase (0-6 minutes post formalin injection)", "setting": "hTac1-hM4D; CNO i.p. 30 min prior to 1.5% formalin (50 μl) s.c., F=0.07, P=0.8", "result": "no significant effect"},
      {"measurement": "total face grooming time, tonic phase (12-45 minutes post formalin injection)", "setting": "hTac1-hM4D; CNO i.p. 30 min prior to formalin, F=1.6, P=0.2", "result": "no significant effect"},
      {"measurement": "pin-prick response score, contralateral side", "setting": "hSyn-hM4D; CNO i.p. at D26", "result": "No significant effects"},
      {"measurement": "von Frey detection threshold, contralateral side", "setting": "hSyn-hM4D; CNO i.p. at D26", "result": "No significant effects"},
      {"measurement": "von Frey detection threshold, ipsilateral side, compared to post-operative days 21 and 27", "setting": "hSyn-hM4D; CNO i.p. at D26, D21 F=20.4, P=0.004, D27 F=7.8, P=0.03", "result": "significantly increased"},
      {"measurement": "pin-prick response score, ipsilateral side, compared to post-operative days 21 and 27", "setting": "hSyn-hM4D; CNO i.p. at D26, D21 F=32, P=0.001, D27 F=21, P=0.004", "result": "significantly decreased"},
      {"measurement": "von Frey detection threshold, ipsilateral side, compared to vehicle treated animals", "setting": "hSyn-hM4D; n=4 per group, CNO i.p. at D26, 30 min prior to testing, F=7.8, P=0.03", "result": "significantly increased"},
      {"measurement": "pin-prick response score, ipsilateral vibrissal pad, compared to vehicle treated animals", "setting": "hSyn-hM4D; n=4 per group, CNO i.p. at D26, F=7.7, P=0.03", "result": "significantly decreased"},
      {"measurement": "total time spent grooming after formalin", "setting": "[1]; CNO (10 mg/ml, ip) 30 min prior to 50 μL 1.5% formalin s.c. vibrissal pad, day 37 after virus, n=3/group, p<0.04", "result": "significantly reduced"},
      {"measurement": "grooming in early phase (<9 minutes) after formalin", "setting": "[1]; [2]", "result": "trends to reduce"},
      {"measurement": "grooming in late phase (9-45 minutes) after formalin", "setting": "[1]; [2]", "result": "trends to reduce"}
    ]}
  ]
}
